US11613546B2, “Substituted pyridotriazine compounds and uses thereof” (Gilead Sciences, Inc., priority 2021, dated 2023)
Read-outs that look alike come from different tables or passages of the source.

Key:
Type in all cases: cell-based
[1] = system: HIV-1 (IIIB); experiment: Antiviral assay in MT-4 cells; settings: Human immunodeficiency virus 1, IIIB, MT4, 120 h
Description: Antiviral Assay in MT-4 Cells
(§1) Compounds were tested in a high-throughput 384-well assay format for their ability to inhibit the replication of HIV-1 (IIIB) in MT-4 cells. Compounds were serially diluted (1:3) in DMSO on 384-well polypropylene plates and further diluted 200-fold into complete RPMI media (10% FBS, 1% P/S) using the Biotek Micro Flow and Labcyte ECHO acoustic dispenser. Each plate contained up to 8 test compounds, with negative (No Drug Control) and 5 μM AZT positive controls. MT-4 cells were pre-infected with 10 μL of either RPMI (mock-infected) or a fresh 1:250 dilution of HIV-1 IIIB concentrated virus stock. Infected and uninfected MT-4 cells were further diluted in complete RPMI media and added to each plate using a Micro Flow dispenser. After 5 days incubation in a humidified and temperature controlled incubator (37° C.), Cell Titer Glo (Promega) was added to the assay plates and chemiluminescence read using an Envision plate-reader. EC50 values were defined as the compound concentration that causes a 50% decrease in luminescence signal, and were calculated using a sigmoidal dose-response model to generate curve fits.

[2] = Cytotoxicity assay in MT-4 cells; settings: human
Description: as §1, with “fits. Cytotoxicity Assay in MT-4 Cells Assays were performed as above except uninfected MT-4 cells were added to each well containing test compound. In addition, 10 μM puromycin was added to the last column of each assay plate to assess a base level of cytotoxicity.” for “fits.”

[3] = system: pLai RLuc reporter virus; experiment: HIV MT-4 serum shift antiviral reporter assay; settings: Human immunodeficiency virus 1, 72 h
Description: To quantify the amount of protein binding to human serum, compounds were serially diluted (1:3) in DMSO and acoustically transferred onto 384-well assay plates via a Labcyte ECHO robot. Each plate contained up to 8 test compounds, including negative and positive controls, (DMSO, 5 μM AZT respectively). Assay plates were prepared in duplicate, and tested in either CCM (cell culture media) or HS/CCM (human serum/cell culture media). MT-4 cells were first pre-infected with pLai RLuc reporter virus for 2 h at 37° C., then further diluted in either CCM (RPMI media, 10% FBS, 1% P/S) or HS/CCM (RPMI media, 10% FBS, 50% HS, 1% P/S), and subsequently added to each plate using a Biotek Micro Flow dispenser. After a 72-h incubation in a humidified and temperature controlled incubator (37° C.), Renilla Glo (Promega) was added to all assay plates and chemiluminescence read using an Envision plate-reader. EC50 values were defined as the compound concentration that causes a 50% decrease in luminescence signal, and were calculated using a sigmoidal dose-response model to generate curve fits. To determine the amount of protein binding, EC50 fold shifts (or EC50 shifts) were calculated by dividing EC50 (HS/CCM)/EC50 (CCM).

[4] = HIV-1 IIIB infected MT-4 cells, 5 days, Cell Titer Glo, read-out: MT4 EC50
[5] = uninfected MT-4 cells, 5 days, Cell Titer Glo, read-out: CC50
[6] = read-out: RLUC 50% HS (nM), HS/CCM: 50% human serum, 72 h, Renilla Glo
[7] = read-out: RLUC CCM (nM), cell culture media (RPMI, 10% FBS), 72 h, Renilla Glo

Row | SMILES | EC50 [1, 4] [nM] | CC50 at 5 days [2, 5] [nM] | EC50 [3, 6] [nM] | EC50 [3, 7] [nM] | EC50 ([1]; read-out: MT4 EC50 (nM)) [nM] | CC50 at 5 days ([2]; CC50 (nM)) [nM]
1 | C[C@H]1C=C[C@@H](CF)N2CN1n1cc(C(=O)NCc3ccc(F)cc3F)c(=O)c(O)c1C2=O [Example C97, (1R,2S,5S)—N-(2,4-difluorobenzyl)-5-(fluoromethyl)-8-hydroxy-2-methyl-7,9-dioxo-2,5,7,9-tetrahydro-1,6-methanopyrido[1,2-b][1,2,5]triazonine-10-carboxamide] | 34.9 | 9550 | 1730 | 14.7 | – | –
2 | C[C@@H]1C[C@@H](C(F)F)[C@H](C)N2CN1n1cc(C(=O)NCc3c(F)cc(F)cc3F)c(=O)c(O)c1C2=O [Example C56, (1S,2R,4R,5S)-4-(difluoromethyl)-8-hydroxy-2,5-dimethyl-7,9-dioxo-N-(2,4,6-trifluorobenzyl)-2,3,4,5,7,9-hexahydro-1,6-methanopyrido[1,2-b][1,2,5]triazonine-10-carboxamide] | – | 10100 | 24.9 | 0.52 | 1.1 | –
3 | C[C@@H]1C[C@H](F)[C@H](C)N2CN1n1cc(C(=O)NCc3c(F)cc(F)cc3F)c(=O)c(O)c1C2=O [Example C34, (1S,2R,4S,5S)-4-fluoro-8-hydroxy-2,5-dimethyl-7,9-dioxo-N-(2,4,6-trifluorobenzyl)-2,3,4,5,7,9-hexahydro-1,6-methanopyrido[1,2-b][1,2,5]triazonine-10-carboxamide] | 1.4 | 8360 | 938 | 0.59 | – | –
4 | C[C@H]1CCC2(CCC2)N2CN1C(=O)c1c(O)c(=O)c(C(=O)NCc3c(F)cc(F)cc3F)cn12 [Example C105, (1′S,5′S)-8′-hydroxy-5′-methyl-7′,9′-dioxo-N-(2,4,6-trifluorobenzyl)-4′,5′,7′,9′-tetrahydro-3′H-spiro[cyclobutane-1,2′-[1,6]methanopyrido[1,2-b][1,2,5]triazonine]-10′-carboxamide] | 3 | – | 998 | 1.38 | – | 13600
5 | C[C@H]1CC[C@@H](CF)N2CN1C(=O)c1c(O)c(=O)c(C(=O)NCc3ccc(F)cc3F)cn12 [Example C45, (1S,2S,5S)—N-(2,4-difluorobenzyl)-2-(fluoromethyl)-8-hydroxy-5-methyl-7,9-dioxo-2,3,4,5,7,9-hexahydro-1,6-methanopyrido[1,2-b][1,2,5]triazonine-10-carboxamide] | 1.8 | 11000 | – | – | – | –
6 | C[C@@H]1C/C=C\[C@H](C)N2CN1n1cc(C(=O)NCc3c(F)cc(F)cc3F)c(=O)c(O)c1C2=O [Example C12, (1R,2S,6R,Z)-9-hydroxy-2,6-dimethyl-8,10-dioxo-N-(2,4,6-trifluorobenzyl)-3,6,8,10-tetrahydro-2H-1,7-methanopyrido[1,2-b][1,2,5]triazecine-11-carboxamide] | 3.4 | 10800 | 273 | 0.77 | – | –
7 | C[C@@H]1C=CC(C)(C)N2CN1n1cc(C(=O)NCc3ccc(F)cc3F)c(=O)c(O)c1C2=O [Example C90, (1S,2R)—N-(2,4-difluorobenzyl)-8-hydroxy-2,5,5-trimethyl-7,9-dioxo-2,5,7,9-tetrahydro-1,6-methanopyrido[1,2-b][1,2,5]triazonine-10-carboxamide] | 2 | 47100 | 91.9 | 0.35 | – | –
8 | CC(C)[C@@H]1C=C[C@H](C)N2CN1n1cc(C(=O)NCc3c(F)cc(F)cc3F)c(=O)c(O)c1C2=O [Example C74, (1S,2R,5S)-8-hydroxy-2-isopropyl-5-methyl-7,9-dioxo-N-(2,4,6-trifluorobenzyl)-2,5,7,9-tetrahydro-1,6-methanopyrido[1,2-b][1,2,5]triazonine-10-carboxamide] | 0.9 | 6810 | 325 | 0.47 | – | –
9 | C[C@H]1CCC(C)(C)N2CN1C(=O)c1c(O)c(=O)c(C(=O)NCc3c(F)cc(F)cc3F)cn12 [Example C87, (1S,5S)-8-hydroxy-2,2,5-trimethyl-7,9-dioxo-N-(2,4,6-trifluorobenzyl)-2,3,4,5,7,9-hexahydro-1,6-methanopyrido[1,2-b][1,2,5]triazonine-10-carboxamide] | – | – | 198 | 0.68 | – | –
10 | C[C@@H]1C[C@H](F)[C@H](C)N2CN1n1cc(C(=O)NCc3ccc(F)cc3F)c(=O)c(O)c1C2=O [Example C52, (1S,2R,4S,5S)—N-(2,4-difluorobenzyl)-4-fluoro-8-hydroxy-2,5-dimethyl-7,9-dioxo-2,3,4,5,7,9-hexahydro-1,6-methanopyrido[1,2-b][1,2,5]triazonine-10-carboxamide] | 1.5 | 9220 | 473 | 0.77 | – | –
11 | C[C@H]1CC[C@@H](C(F)F)N2CN1C(=O)c1c(O)c(=O)c(C(=O)NCc3ccc(F)cc3F)cn12 [Example C81, (1S,2S,5S)—N-(2,4-difluorobenzyl)-2-(difluoromethyl)-8-hydroxy-5-methyl-7,9-dioxo-2,3,4,5,7,9-hexahydro-1,6-methanopyrido[1,2-b][1,2,5]triazonine-10-carboxamide] | 1.5 | 13700 | 723 | 0.48 | – | –
12 | C[C@@H]1C=CCN2CN1n1cc(C(=O)NCc3c(F)cc(F)cc3F)c(=O)c(O)c1C2=O [Example C70, (1S,2R)-8-hydroxy-2-methyl-7,9-dioxo-N-(2,4,6-trifluorobenzyl)-2,5,7,9-tetrahydro-1,6-methanopyrido[1,2-b][1,2,5]triazonine-10-carboxamide] | 1.2 | 11600 | 11.5 | 0.54 | – | –
13 | C[C@H]1C=CC2(COC(C)(C)C2)N2CN1C(=O)c1c(O)c(=O)c(C(=O)NCc3c(F)cc(F)cc3F)cn12 (stereo partly drawn) [Example C9, (1′S,5′S)-8′-hydroxy-5,5,5′-trimethyl-7′,9′-dioxo-N-(2,4,6-trifluorobenzyl)-4,5,7′,9′-tetrahydro-2H,5′H-spiro[furan-3,2′-[1,6]methanopyrido[1,2-b][1,2,5]triazonine]-10′-carboxamide] | – | – | – | – | – | 25300
14 | CC1N2C(=O)c3c(O)c(=O)c(C(=O)NCc4c(F)cc(F)cc4F)cn3N1[C@H](C)C=C[C@@H]2C (stereo partly drawn) [Example C100, (1S,2R,5S)-8-hydroxy-2,5,13-trimethyl-7,9-dioxo-N-(2,4,6-trifluorobenzyl)-2,5,7,9-tetrahydro-1,6-methanopyrido[1,2-b][1,2,5]triazonine-10-carboxamide] | 0.8 | 16200 | – | – | – | –
15 | CCC1N2C(=O)c3c(O)c(=O)c(C(=O)NCc4c(F)cc(F)cc4F)cn3N1[C@H](C)C=C[C@@H]2C (stereo partly drawn) [Example C101, (1S,2R,5S)-13-ethyl-8-hydroxy-2,5-dimethyl-7,9-dioxo-N-(2,4,6-trifluorobenzyl)-2,5,7,9-tetrahydro-1,6-methanopyrido[1,2-b][1,2,5]triazonine-10-carboxamide] | 19.7 | 33500 | – | – | – | –
16 | C[C@@H]1CCC[C@@H](C)N2CN1C(=O)c1c(O)c(=O)c(C(=O)NCc3c(F)cc(F)cc3F)cn12 [Example C22, (1S,2R,6R)-9-hydroxy-2,6-dimethyl-8,10-dioxo-N-(2,4,6-trifluorobenzyl)-3,4,5,6,8,10-hexahydro-2H-1,7-methanopyrido[1,2-b][1,2,5]triazecine-11-carboxamide] | 2.2 | 16300 | – | – | – | –
